The values that follow come from ChEMBL document CHEMBL4118148, “Design, synthesis and cardiovascular evaluation of some aminoisopropanoloxy derivatives of xanthone” (Bioorg Med Chem, 2018).

The test system of series [1] is Rattus norvegicus. The series is described as follows: Hypotensive activity in normotensive Wistar rat assessed as systolic blood pressure at 0.5 mg/kg, iv measured after 60 mins (reference value: 116 +/- 4.6 mmHg). It is filed as functional.
For series [2], the system named is Rattus norvegicus. The experiment in a line: Hypotensive activity in normotensive Wistar rat assessed as systolic blood pressure at 0.5 mg/kg, iv measured after 20 mins (reference value: 116 +/- 4.6 mmHg). The series is classed as functional.
Series [3] has as its system Rattus norvegicus. The experiment in a line: Hypotensive activity in normotensive Wistar rat assessed as systolic blood pressure at 0.5 mg/kg, iv measured after 30 mins (reference value: 147.7 +/- 5.9 mmHg). It is filed as functional.
The subject of series [4] is Rattus norvegicus. The series is described as follows: Hypotensive activity in normotensive Wistar rat assessed as systolic blood pressure at 0.5 mg/kg, iv measured after 60 mins (reference value: 147.7 +/- 5.9 mmHg). It is filed as functional.
Series [5] deals with Rattus norvegicus. The series is described as follows: Hypotensive activity in normotensive Wistar rat assessed as systolic blood pressure at 0.5 mg/kg, iv measured after 30 mins (reference value: 116 +/- 4.6 mmHg). It is filed as functional.
The subject of series [6] is Rattus norvegicus. The series is described as follows: Hypotensive activity in normotensive Wistar rat assessed as reduction in systolic blood pressure at 0.5 mg/kg, iv measured over 30 mins relative to control. The series is classed as functional. Further details: scale not given: the % may be the effect or the level left.
Series [7] deals with Rattus norvegicus. The series is described as follows: Hypotensive activity in normotensive Wistar rat assessed as systolic blood pressure at 0.5 mg/kg, iv measured after 5 mins (reference value: 116 +/- 4.6 mmHg). It is filed as functional.
Series [8] concerns Rattus norvegicus. The experiment in a line: Hypotensive activity in normotensive Wistar rat assessed as systolic blood pressure at 0.5 mg/kg, iv measured after 5 mins (reference value: 147.7 +/- 5.9 mmHg). The series is classed as functional.
Series [9] has as its system Rattus norvegicus. The experiment in a line: Hypotensive activity in normotensive Wistar rat assessed as systolic blood pressure at 0.5 mg/kg, iv measured after 10 mins (reference value: 116 +/- 4.6 mmHg). The series is classed as functional.
For series [10], the system named is Rattus norvegicus. The experiment in a line: Hypotensive activity in normotensive Wistar rat assessed as reduction in diastolic blood pressure at 1 mg/kg, iv measured over 10 mins relative to control. It is filed as functional. Details: scale not given: the % may be the effect or the level left.
For series [11], the system named is Rattus norvegicus. The series is described as follows: Cardiotoxicity in Wistar rat assessed as effect on QTC interval time at 1 mg/kg, iv measured after 1 min (reference value: 137.7 +/- 2 ms). It is filed as toxicity, organism-based. The settings on record: in vivo.
Series [12] relates to Rattus norvegicus. The series is described as follows: Cardiotoxicity in Wistar rat assessed as effect on QT interval time at 1 mg/kg, iv measured after 1 min (reference value: 59.2 +/- 0.5 ms). It is filed as toxicity, organism-based. The following applies: in vivo.
The test system of series [13] is Rattus norvegicus. The experiment in a line: Cardiotoxicity in Wistar rat assessed as effect on heart rate at 1 mg/kg, iv measured after 15 mins (reference value: 320.6 +/- 8.1 bpm). The series is classed as toxicity, organism-based. The following applies: in vivo, 0.25 h.
In series [14] the test system is Rattus norvegicus. The series is described as follows: Cardiotoxicity in Wistar rat assessed as effect on PQ interval time at 1 mg/kg, iv measured after 5 mins (reference value: 56.8 +/- 1.8 ms). The following applies: in vivo. The series is classed as toxicity, organism-based.
The subject of series [15] is Rattus norvegicus. The series is described as follows: Hypotensive activity in normotensive Wistar rat assessed as reduction in diastolic blood pressure at 1 mg/kg, iv measured after 30 to 60 mins relative to control. It is filed as functional. Further details: scale not given: the % may be the effect or the level left.
For series [16], the system named is Rattus norvegicus. The series is described as follows: In vivo inhibition of beta adrenoceptor in Wistar rat assessed as reduction in isoprenaline-induced tachycardia at 1 mg/kg, iv administered as single dose 10 mins prior to isoprenaline injection. It is filed as functional, organism-based.
Series [17] concerns Rattus norvegicus. The series is described as follows: Cardiotoxicity in Wistar rat assessed as effect on QRS interval time at 1 mg/kg, iv measured after 5 mins (reference value: 19.4 +/- 0.9 ms). It is filed as toxicity, organism-based. The settings on record: in vivo.
For series [18], the system named is Rattus norvegicus. The experiment in a line: Cardiotoxicity in Wistar rat assessed as effect on QT interval time at 1 mg/kg, iv measured after 5 mins (reference value: 59.2 +/- 0.5 ms). The series is classed as toxicity, organism-based. The following applies: in vivo.
Series [19] relates to Rattus norvegicus. The experiment in a line: Cardiotoxicity in Wistar rat assessed as effect on PQ interval time at 1 mg/kg, iv measured after 1 min (reference value: 56.8 +/- 1.8 ms). The series is classed as toxicity, organism-based. The settings on record: in vivo.
Series [20] has as its system Rattus norvegicus. The experiment in a line: Cardiotoxicity in Wistar rat assessed as effect on QTC interval time at 1 mg/kg, iv measured after 15 mins (reference value: 137.7 +/- 2 ms). The series is classed as toxicity, organism-based. The following applies: in vivo, 0.25 h.
For series [21], the system named is Rattus norvegicus. The experiment in a line: Hypotensive activity in normotensive Wistar rat assessed as reduction in systolic blood pressure at 1 mg/kg, iv measured after 30 to 60 mins relative to control. The series is classed as functional. Further details: scale not given: the % may be the effect or the level left.
The subject of series [22] is Rattus norvegicus. The series is described as follows: Cardiotoxicity in Wistar rat assessed as effect on QRS interval time at 1 mg/kg, iv measured after 15 mins (reference value: 19.4 +/- 0.9 ms). It is filed as toxicity, organism-based. The settings on record: in vivo, 0.25 h.
The test system of series [23] is Rattus norvegicus. The series is described as follows: Hypotensive activity in normotensive Wistar rat assessed as reduction in systolic blood pressure administered iv measured after 60 mins. Details: scale not given: the % may be the effect or the level left. It is filed as functional.
The subject of series [24] is Rattus norvegicus. The experiment in a line: Hypotensive activity in normotensive Wistar rat assessed as diastolic blood pressure at 2.5 mg/kg, iv measured after 30 mins (reference value: 116.2 +/- 1.2 mmHg). It is filed as functional.
In series [25] the test system is Rattus norvegicus. The experiment in a line: Hypotensive activity in normotensive Wistar rat assessed as reduction in diastolic blood pressure at 2.5 mg/kg, iv measured after 5 to 10 mins relative to control. The series is classed as functional. Details: scale not given: the % may be the effect or the level left.
Series [26] concerns Blood. The experiment in a line: Anti-aggregative activity in Wistar rat whole blood assessed as inhibition of collagen-induced aggregation up to 100 uM preincubated for 3 mins followed by collagen induction measured for 6 mins. It is filed as functional, tissue-based.
Series [27] concerns Rattus norvegicus. The series is described as follows: Hypotensive activity in normotensive Wistar rat assessed as systolic blood pressure at 2.5 mg/kg, iv measured after 10 mins (reference value: 148.5 +/- 2.6 mmHg). The series is classed as functional.
In series [28] the test system is Rattus norvegicus. The series is described as follows: Hypotensive activity in normotensive Wistar rat assessed as reduction in systolic blood pressure at 2.5 mg/kg, iv measured after 5 to 10 mins relative to control. It is filed as functional. Further details: scale not given: the % may be the effect or the level left.
A short description of series [29]: (§1) Inhibition of voltage gated calcium channel in Wistar rat aorta assessed as relaxation of KCl-precontracted aortic rings by measuring reduction in calcium entry in presence of phentolamine.
Series [30] is filed under the species Rattus norvegicus. The description is as §1.
For series [31], the system named is Rattus norvegicus. The series is described as follows: Hypotensive activity in normotensive Wistar rat assessed as diastolic blood pressure at 2.5 mg/kg, iv measured after 10 mins (reference value: 116.2 +/- 1.2 mmHg). It is filed as functional.
Series [32] deals with Rattus norvegicus. The series is described as follows: Hypotensive activity in normotensive Wistar rat assessed as diastolic blood pressure at 2.5 mg/kg, iv measured after 20 mins (reference value: 116.2 +/- 1.2 mmHg). It is filed as functional.
The test system of series [33] is Rattus norvegicus. The experiment in a line: Hypotensive activity in normotensive Wistar rat assessed as systolic blood pressure at 2.5 mg/kg, iv measured after 20 mins (reference value: 148.5 +/- 2.6 mmHg). The series is classed as functional.
Series [34] deals with Rattus norvegicus. The experiment in a line: Hypotensive activity in normotensive Wistar rat assessed as systolic blood pressure at 2.5 mg/kg, iv measured after 5 mins (reference value: 148.5 +/- 2.6 mmHg). It is filed as functional.
For series [35], the system named is Rattus norvegicus. The series is described as follows: Hypotensive activity in normotensive Wistar rat assessed as reduction in diastolic blood pressure at 1 mg/kg, iv measured over 30 mins relative to control. The series is classed as functional. Details: scale not given: the % may be the effect or the level left.
In series [36] the test system is Rattus norvegicus. The series is described as follows: Hypotensive activity in normotensive Wistar rat assessed as reduction in diastolic blood pressure at 1 mg/kg, iv measured over 40th min relative to control. It is filed as functional. Further details: scale not given: the % may be the effect or the level left.
Series [37] concerns the target Beta-1 adrenergic receptor (Rattus norvegicus) (UniProt P18090). The experiment in a line: Displacement of [3H]-CGP-12177 from adrenergic beta1 receptor in Wistar rat cortex at 10^-5 M incubated for 60 mins by microbeta liquid scintillation counting analysis. Background: Loss of bound radioactivity is the signal in a displacement assay; it reports binding, not function.

The subject of series [38] is Rattus norvegicus. The experiment in a line: Hypotensive activity in normotensive Wistar rat assessed as reduction in systolic blood pressure at 1 mg/kg, iv measured over 40th min relative to control. The series is classed as functional. Further details: scale not given: the % may be the effect or the level left.

The source made the active and inactive calls. No cut-off for these calls is given here.

Sequence of Beta-1 adrenergic receptor (Rattus norvegicus) (P18090 whole entry, looked up): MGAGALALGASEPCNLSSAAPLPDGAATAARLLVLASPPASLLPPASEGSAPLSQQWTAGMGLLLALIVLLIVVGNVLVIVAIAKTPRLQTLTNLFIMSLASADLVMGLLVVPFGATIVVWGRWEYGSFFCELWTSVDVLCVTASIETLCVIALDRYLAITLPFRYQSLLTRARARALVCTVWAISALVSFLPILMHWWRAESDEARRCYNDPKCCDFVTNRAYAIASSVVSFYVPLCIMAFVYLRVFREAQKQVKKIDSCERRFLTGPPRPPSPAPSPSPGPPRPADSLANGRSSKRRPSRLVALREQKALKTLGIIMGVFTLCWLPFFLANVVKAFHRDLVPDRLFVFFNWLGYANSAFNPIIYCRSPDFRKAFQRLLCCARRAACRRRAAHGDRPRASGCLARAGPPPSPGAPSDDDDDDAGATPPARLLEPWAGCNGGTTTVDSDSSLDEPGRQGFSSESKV

For the compound `Cl.O=c1c2ccccc2oc2c(OCC(O)CN3CCN(c4ccccn4)CC3)cccc12` (racemic), the Activity in [1] is recorded as 105.7 mmHg; in series [2], 114 mmHg; in series [3] it was 137.7 mmHg; in [4] it was 132 mmHg; in [5], 110.3 mmHg; in series [6], 7 - 11%. Moreover, the Activity in series [7] is on record as 116.3 mmHg; in series [8], 146.7 mmHg; in [9], 114.3 mmHg.
In the case of `COc1ccccc1CCNCC(O)COc1cccc2c(=O)c3ccccc3oc12.Cl` (racemic), the Activity in [10] worked out at 7%.
For the compound `CC(C)(C)NCC(O)COc1cccc2c(=O)c3ccccc3oc12.Cl` (racemic), the Time is given as 134.5 ms in series [11]; 59.2 ms in series [12]; 58 ms in series [14]; 19 ms in series [17]; 59.2 ms in series [18]; 57.6 ms in series [19]. Moreover, the Time stood at 131 ms in [20] and 19.2 ms in [22]. The results for the Activity in [13], in [15] and in series [21] were 290.6 bpm, 10 - 13% and 10%, respectively. Further, the inhibition entry in series [16] is “Active”.
For `COc1ccccc1CNCC(O)COc1cccc2c(=O)c3ccccc3oc12.Cl` (racemic), the Activity in [23] is reported as 7%.
With `COc1ccc(CCNCC(O)COc2cccc3c(=O)c4ccccc4oc23)cc1OC.Cl` (racemic), the Activity in [24] is given as 97.7 mmHg; in series [25] it was 8 - 16%; in [27], 135 mmHg; in [28], 9 - 12%; in series [31], 101.5 mmHg; in series [32], 99.7 mmHg. The Activity in series [33] turned out to be 132 mmHg; in series [34], 143.7 mmHg. Besides, the inhibition result in series [26] is “inactive”. In addition, the IC50 in series [29] amounted to 10.3 µM. In addition, the inhibition entry was “Dose-dependent effect” in series [30] and 95% in [30] (concentration not given here).
`COc1ccccc1OCCNCC(O)COc1cccc2c(=O)c3ccccc3oc12.Cl` (racemic): the Activity in series [35] is on record as 7 - 14%.
On to `Cl.O=c1c2ccccc2oc2cc(OCC(O)CN3CCN(c4ccccn4)CC3)ccc12` (racemic), for which the Activity in series [36] and in [38] was 8 - 10% in each case. Besides, the result in series [37] was inactive.

In general, inhibition refers to the share of the control response that was lost under treatment. The IC50 is the midpoint of a concentration-inhibition curve.
